The record followed here is US20170305943A1, “COMPOUNDS FOR THE TREATMENT OF BACTERIAL INFECTIONS” (priority 2014, published 2017).

In brackets after ≈: the same amount, converted by molar mass.

A word on the MIC: it is the least concentration at which growth counts as inhibited.

This experiment deals with Clostridium difficile (Isolate ID ATCC 9689). The experiment is described as follows: Bacterial Assay: Determination of Antibacterial Activity (MIC, broth microdilution or agar dilution). It is filed as cell-based. Particulars: Clostridioides difficile, ATCC9689, 48 h, read-out: C. difficile MIC Activity Range. In outline:
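MICs were set by CLSI broth microdilution or agar dilution for anaerobes, read visually after 48 hours at 37° C. under anaerobic gas packs. Medium was reinforced clostridial medium with 0.1% defibrinated horse blood; values are binned as A ≦1.01, B >1.0-4.0, C >4.0-16 μg/mL.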
In general terms: Broth dilution looks for growth in wells or tubes with falling amounts of substance.
In the case of `NC(=O)c1c(F)ccc(OCCCCOc2cccc(Br)c2)c1F` [Compound 172, 3-[4-(3-bromophenoxy)butoxy]-2,6-difluorobenzamide], the MIC was in the range of 1 to 4 µg/mL (≈ 2.5 to 9.99 µM). As to `N#Cc1cccc(OCCCCOc2ccc(F)c(C(N)=O)c2F)c1` [Compound 173, 3-[4-(3-cyanophenoxy)butoxy]-2,6-difluorobenzamide], the minimal inhibitory concentration (MIC) is 4 to 16 µg/mL (≈ 11.5 to 46.2 µM). The result for `NC(=O)c1c(F)ccc(OCCCCOc2cccc(S(F)(F)(F)(F)F)c2)c1F` [Compound 174, 2,6-difluoro-3-{4-[3-(pentafluoro-lambda~6~- sulfanyl)phenoxy]butoxy}benzamide] reads below 1.01 µg/mL; that for `CC(C)(C)c1ccc(OCCCCOc2ccc(F)c(C(N)=O)c2F)cc1` [Compound 175, 3-[4-(4-tert-butylphenoxy)butoxy]-2,6-difluorobenzamide], below 1.01 µg/mL; that for `NC(=O)c1c(F)ccc(OCCCCOc2ccc(Br)cc2)c1F` [Compound 176, 3-[4-(4-bromophenoxy)butoxy]-2,6-difluorobenzamide], below 1.01 µg/mL. The result for `N#Cc1ccc(OCCCCOc2ccc(F)c(C(N)=O)c2F)cc1` [Compound 177, 3-[4-(4-cyanophenoxy)butoxy]-2,6-difluorobenzamide] reads 1 to 4 µg/mL (≈ 2.89 to 11.5 µM).

Turning to `N/C(=N\O)c1c(F)ccc(OCCCCOc2ccc(C(F)(F)F)cn2)c1F` [Compound 178, 2,6-difluoro-N′-hydroxy-3-(4-{[5-(trifluoromethyl)pyridin-2-yl]oxy}butoxy)benzenecarboximidamide], the MIC was 4 to 16 µg/mL (≈ 9.87 to 39.5 µM). The result for `NC(=O)c1c(F)ccc(NCCCCOc2ccc(C(F)(F)F)cn2)c1F` [Compound 179, 2,6-difluoro-3-[(4-{[5-(trifluoromethyl)pyridin-2-yl]oxy}butyl)amino]benzamide] reads 4 to 16 µg/mL (≈ 10.3 to 41.1 µM); that for `CN(CCCCOc1ccc(C(F)(F)F)cn1)c1ccc(F)c(C(N)=O)c1F` [Compound 180, 2,6-difluoro-3-[methyl(4-{[5-(trifluoromethyl)pyridin-2-yl]oxy}butyl)amino]benzamide], 1 to 4 µg/mL (≈ 2.48 to 9.92 µM); that for `NC(=O)c1c(F)ccc(N(CCO)CCCCOc2ccc(OC(F)(F)F)cc2)c1F` [Compound 181, 2,6-difluoro-3-[(2-hydroxyethyl){4-[4-(trifluoromethoxy)phenoxy]butyl}amino] benzamide], 1 to 4 µg/mL (≈ 2.23 to 8.92 µM). Consider `N#CCCCN(CCCCOc1ccc(OC(F)(F)F)cc1)c1ccc(F)c(C(N)=O)c1F` [Compound 182, 3-[(3-cyanopropyl){4-[4-(trifluoromethoxy)phenoxy]butyl)amino]-2,6-difluorobenzamide], for which the MIC lay within 4 to 16 µg/mL (≈ 8.48 to 33.9 µM). With `NC(=O)CN(CCCCOc1ccc(OC(F)(F)F)cc1)c1ccc(F)c(C(N)=O)c1F` [Compound 183, 3-[(2-amino-2-oxoethyl){4-[4-(trifluoromethoxy)phenoxy]butyl}amino]-2,6-difluorobenzamide], the MIC was 4 to 16 µg/mL (≈ 8.67 to 34.7 µM). The result for `COCCN(CCCCOc1ccc(OC(F)(F)F)cc1)c1ccc(F)c(C(N)=O)c1F` [Compound 184, 2,6-difluoro-3-[(2-methoxyethyl){4-[4-(trifluoromethoxy)phenoxy]butyl}amino]benzamide] reads 1 to 4 µg/mL (≈ 2.16 to 8.65 µM). With `Cc1ccc(CN(CCCCOc2ccc(OC(F)(F)F)cc2)c2ccc(F)c(C(N)=O)c2F)cn1` [Compound 185, 2,6-difluoro-3-([(6-methylpyridin-3-yl)methyl]{4-[4-(trifluoromethoxy)phenoxy]butyl}amino)benzamide] the figure was 4 to 16 µg/mL (≈ 7.85 to 31.4 µM); with `CCOC(=O)CN(CCCCOc1ccc(OC(F)(F)F)cc1)c1ccc(F)c(C(N)=O)c1F` [Compound 186, ethyl N-(3-carbamoyl-2,4-difluorophenyl)-N-{4-[4-(trifluoromethoxy)phenoxy]butyl}glycinate], 1 to 4 µg/mL (≈ 2.04 to 8.16 µM); with `NC(=O)c1c(F)ccc(N(CCCCOc2ccc(OC(F)(F)F)cc2)CC(=O)O)c1F` [Compound 187, N-(3-carbamoyl-2,4-difluorophenyl)-N-{4-[4-(trifluoromethoxy)phenoxy]butyl}glycine], 4 to 16 µg/mL (≈ 8.65 to 34.6 µM).
